Laboratory results taken from patent publication US8258176B2, “Dithiolopyrrolone compounds, the preparation and the use thereof” (Shanghai Institute of Pharmaceutical Industry, priority 2007, dated 2012).
Like-named read-outs stand apart in the source and are kept apart here.

B1: G-CSF: granulocyte colony-stimulating factor, SAIGELI, Shanghai Sunway Biotech Co., Ltd.; positive control (protein, UniProt P09919 31-207, looked up)
Granulocyte …: TPLGPASSLPQSFLLKCLEQVRKIQGDGAALQEKLVSECATYKLCHPEELVLLGHSLGIPWAPLSSCPSQALQLAGCLSQLHSGLFLYQGLLQALEGISPELGPTLDTLQLDVADFATTIWQQMEELGMAPALQPTQGAMPAFASAFQRRAGGVLVASHLQSFLEVSYRVLRHLAQP

What was measured:
[1] = tested on: bone marrow granulocyte series; experiment: Bone marrow smear microscopic examination of CTX model mice; type: in vivo, BALB/c mice; conditions: bone marrow smear after treatment
[2] = tested on: peripheral blood leukocytes of model mice; conditions: for NE % (percentage of neutrophils in the total number of white blood cells) / WBC count: CTX model mice
Description: Sample: series of dithiolopyrrolone compounds were dissolved in 0.5% CMC—Na to be suspension after grinding with Tween (less than 4% usage).
Cyclophosphamide for Injection (CTX), Shanghai Hualian Pharmaceutical Co., Ltd., batch number: 050606, prepared of being dissolved in saline.
SAIGELI (G-CSF), Shanghai Sunway Biotech Co., Ltd., batch number: 051001
Animal blood analyzer, model: HEMAVET950 • 2. Method
40 BALB/c mice, were randomly divided into five groups, blank control group, positive control (G-CSF) group (22.5 ug/kg), and two dithiolopyrrolone derivatives groups (compounds 001 and 004, 20 mg/kg), CTX model group (100 mg/kg), respectively with 8 mice in each group. rThe blank control group wasn't treated in any way, the other four groups were treated with CTX intraperitoneal injection, 100 mg/kg, once a day. […] G-CSF group was given G-CSF (22.5 ug/kg) subcutaneously once a day, one day after the completing of the injection of CTX. Dithiolopyrrolone derivatives groups were administered with dithiolopyrrolone derivatives (20 mg/kg), through gavaging once a day (0.5 ml), one day after the completing of the injection of CTX. The mice of model group and blank control group were administered with an equivalent 0.5% CMC—Na solution through gavaging.
Blood specimens were collected according to conventional method via the mice orbital vein, on the 0, 4, 6, 8 day respectively, when the day of administering CTX is set as the first day, then the peripheral blood routine test was carried out, and the effect of series of dithiolopyrrolone compounds on peripheral blood leukocytes of normal mice was analyzed. • 3. Results

[3] = tested on: peripheral blood leukocytes of normal mice; experiment: Effects on peripheral blood leukocytes of normal mice (peripheral blood routine test); type: in vivo; conditions: G-CSF 22.5 ug/kg sc once a day
Source text: Animal hematology analyzer, model: HEMAVET950 • 2. Method
The mice were divided into blank control group, positive control group and the dithiolopyrrolone series of compounds group, there are 10 mice in each group.

[4] = day 0 (before CTX 100 mg/kg ip x 3 days)
[5] = day 4, CTX 100 mg/kg ip days 1-3, compounds 20 mg/kg ig, G-CSF 22.5 ug/kg sc once a day from one day after CTX
[6] = day 6, CTX 100 mg/kg ip days 1-3, compounds 20 mg/kg ig, G-CSF 22.5 ug/kg sc once a day from one day after CTX
[7] = day 8, CTX 100 mg/kg ip days 1-3, compounds 20 mg/kg ig, G-CSF 22.5 ug/kg sc once a day from one day after CTX
[8] = day 0 (before administration), compounds 20 mg/kg ig once a day
[9] = day 3, compounds 20 mg/kg ig once a day
[10] = day 5, compounds 20 mg/kg ig once a day

Molecule | granulocyte series in bone marrow smear (microscopic examination) [1] | total number of white blood cells and percentage of neutrophils after CTX ([2]; CTX 100 mg/kg ip once a day, after three days of administration) | NE % (percentage of neutrophils in the total number of white blood cells) [2, 4] [%] | WBC count [2, 4] [L⁻¹] | NE % (percentage of neutrophils in the total number of white blood cells) [2, 5] [%] | WBC count [2, 5] [L⁻¹] | NE % (percentage of neutrophils in the total number of white blood cells) [2, 6] [%] | WBC count [2, 6] [L⁻¹] | NE % (percentage of neutrophils in the total number of white blood cells) [2, 7] [%] | WBC count [2, 7] [L⁻¹] | NE % (percentage of neutrophils in the total number of white blood cells) [3, 8] [%] | WBC count [3, 8] [L⁻¹] | NE % (percentage of neutrophils in the total number of white blood cells) [3, 9] [%] | WBC count [3, 9] [L⁻¹] | NE % (percentage of neutrophils in the total number of white blood cells) [3, 10] [%] | WBC count [3, 10] [L⁻¹]
O=P1(N(CCCl)CCCl)NCCCO1 (stereo not shown) [CTX, Cyclophosphamide, reference compound] | severely inhibited | significantly decreased | 28.46 | 5.88e+09 | 3.33 | 1.34e+09 | 6.7 | 1.2e+09 | 38.32 | 5.7e+09 |  |  |  |  |  | 
COc1ccc(-n2c3cssc-3c(NC(=O)Oc3ccccc3)c2=O)c(OC)c1 [compound 001] | significant hyperplasia and speeding up of the differentiation and maturation |  | 27.32 | 5.98e+09 | 2.48 | 1.21e+09 | 42.71 | 2.75e+09 | 76.84 | 1.844e+10 | 33.73 | 7.89e+09 | 67.44 | 1.824e+10 | 72.13 | 2.496e+10
CCOC(=O)Nc1c2sscc-2n(-c2ccc(OC)cc2OC)c1=O [compound 004] | significant hyperplasia and speeding up of the differentiation and maturation |  | 18.65 | 5.86e+09 | 4.34 | 1.11e+09 | 36.47 | 1.42e+09 | 87.62 | 1.528e+10 | 31.56 | 7.65e+09 | 56.36 | 1.336e+10 | 78.24 | 1.866e+10
COc1ccc(-n2c3cssc-3c(NC(=O)Nc3ccccc3)c2=O)c(OC)c1 [compound 026] |  |  |  |  |  |  |  |  |  |  | 28.98 | 7.84e+09 | 30.38 | 8.76e+09 | 38.63 | 9.71e+09
CCSC(=O)Nc1c2sscc-2n(-c2ccc(OC)cc2OC)c1=O [compound 027] |  |  |  |  |  |  |  |  |  |  | 24.45 | 8.76e+09 | 45.46 | 1.122e+10 | 48.37 | 1.254e+10
B1 | significant hyperplasia and speeding up of the differentiation and maturation |  | 30.34 | 5.92e+09 | 4.58 | 1.14e+09 | 30.07 | 1.84e+09 | 59.68 | 1.54e+10 | 25.39 | 6.74e+09 | 57.86 | 1.748e+10 | 60.68 | 1.922e+10
